The source of these data is PubChem BioAssay (NCI).

Where “and” joins values, the source holds several entries; their conditions need not be identical. Equal entries are not always repeated.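 Assay format: 96-well plates, 48-hour exposure. At the GI50, growth is halved. TGI: concentration producing complete growth inhibition.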 Bounds are passed on as bounds.

One test concerns HOP-62 NSCLC. The experiment in a line: inhibition of tumour cell growth, NCI panel, 48 h.
On to `CCC[CH2][Sn]1([CH2]CCC)[O]C(=O)c2cccnc2[O]1`, for which the GI50 is 3.95 µM and the TGI is 20.9 µM.
In turn, `COC1CC(OS(=O)(=O)c2ccc([N+](=O)[O-])cc2)C(OC(=O)c2ccccc2)C(C)O1` (stereo unspecified) came in with a TGI of over 100 µM.
For the molecule `CCOc1ccccc1N1C(=O)C(=O)C(c2nc3ccccc3o2)C(=O)C1=O`, the TGI is over 100 µM.
Still for that read-out and setting: under `CCS(CC)(CC)CC1CCCC2=CCC(P(=O)(c3ccccc3)c3ccccc3)CC21` (stereo unspecified) stands 32 µM.
Still for that read-out and setting: under `CC(=O)OCC1OC(n2cnc(C(N)=S)c2N)C(OC(C)=O)C1OC(C)=O` (stereo unspecified) stands over 100 µM.
Still for that read-out and setting: under `Cn1cc(C(=O)NCCC(=N)N)cc1NC(=O)C1=[N+](C)C=C(NC(=O)c2cccc(C(=O)NC3=CC(C(=O)Nc4cc(C(=O)NCCC(=N)N)cn4C)=[N+](C)C3)c2)C1` stands over 100 µM.

The next test deals with NCI-H226 lung. The experiment in a line: inhibition of tumour cell growth, NCI panel, 48 h.
Take `CCN(CC)c1c(C(=O)/C=C/c2ccc(OC)cc2)c(-c2ccccc2)nn(C)c1=O`: the TGI is 47.9 µM.
Still for that read-out and setting: under `CN1C(=Nc2ccccc2)SC1=Nc1ccccc1` stands over 100 µM; under `Oc1ccccc1/C=C/c1csnn1`, over 100 µM.
Same read-out and setting: as for `CP1(=O)CCCCC1`, the figure is over 100 µM.
Still for that read-out and setting: under `Cc1ccc(S(=O)(=O)OC2CSS(=O)CC2OS(=O)(=O)c2ccc(C)cc2)cc1` (stereo unspecified) stands 34.4 µM.
Regarding `COc1cc2c(cc1C)NC(=O)/C2=C/c1ccccn1`, the GI50 was 1.54 µM and the TGI is 4.86 µM.
Regarding `O=[N+]([O-])c1cc(C(F)(F)F)cc([N+](=O)[O-])c1CCl`, the TGI turned out to be 3.11 µM.
Still for that read-out and setting: as for `Nc1ccnc(=O)[nH]1`, the figure is over 100 µM; as for `COc1cc([C@@H]2OC[C@@H]3C(c4cc(OC)c5c(c4)OCO5)OC[C@@H]32)cc(OC)c1OC` (stereo partly specified), over 100 µM.
The same measure, in the same setting: under `CCc1cc(C(=O)OC)cn1C(=N)c1ccc(Cl)cc1` stands over 100 µM; under `Cc1cc(=O)n(-c2ccccc2C)c(C)n1`, over 100 µM; under `Oc1c(C(Nc2cccc3cccnc23)c2ccccc2)ccc2cccnc12` (stereo unspecified), 9.79 µM.
Still for that read-out and setting: under `COc1ccc(Br)c(N/N=C2\CCCNC2=O)c1` stands over 100 µM.
Take `COc1cc2c(c(OC)c1OC)-c1ccc(SC)c(=O)cc1C(CO)C2` (stereo unspecified): the GI50 was under 0.01 µM; the TGI was 0.59 µM and 0.138 µM.
With `Cc1ccc2nc(NC(=O)C(=O)C(C#N)c3nc4ccccc4s3)sc2c1` (stereo unspecified), the TGI was 89.3 µM.
Still for that read-out and setting: under `CC(C)C1CC[C@@H](C)C[C@@]1(O)CC(N)=O` (stereo partly specified) stands over 100 µM.
For the molecule `O=C([CH-]C(=O)c1ccccc1)c1ccccc1.O=C([CH-]C(=O)c1ccccc1)c1ccccc1.[La+3].[OH-].[OH3+]`, the GI50 was 1.67 µM and the TGI was determined as 17.7 µM.
For `CN(CCCn1c2c(c3ccccc3c1=O)C(=O)c1ccccc1-2)CCCn1c2c(c3ccccc3c1=O)C(=O)c1ccccc1-2`, in that order: 0.99 µM and over 36.9 µM.
For `CCC[CH2][Sn]1([CH2]CCC)[O]C(=O)c2cccnc2[O]1`, in that order: 10.5 µM and 23 µM.
`CCOc1ccccc1N1C(=O)C(=O)C(c2nc3ccccc3o2)C(=O)C1=O` showed a TGI of over 100 µM.
Molecule `CCS(CC)(CC)CC1CCCC2=CCC(P(=O)(c3ccccc3)c3ccccc3)CC21` (stereo unspecified) gave a TGI of 39.6 µM.
On the same count and under the same terms, as for `CC(=O)OCC1OC(n2cnc(C(N)=S)c2N)C(OC(C)=O)C1OC(C)=O` (stereo unspecified), the figure is over 100 µM; as for `Cn1cc(C(=O)NCCC(=N)N)cc1NC(=O)C1=[N+](C)C=C(NC(=O)c2cccc(C(=O)NC3=CC(C(=O)Nc4cc(C(=O)NCCC(=N)N)cn4C)=[N+](C)C3)c2)C1`, over 100 µM.

The next test has as its system MOLT-4 leukemia. In words: inhibition of tumour cell growth, NCI panel, 48 h.
On to `CCN(CC)c1c(C(=O)/C=C/c2ccc(OC)cc2)c(-c2ccccc2)nn(C)c1=O`, for which the TGI worked out at 19.8 µM.
Still for that read-out and setting: as for `CN1C(=Nc2ccccc2)SC1=Nc1ccccc1`, the figure is over 100 µM; as for `Oc1ccccc1/C=C/c1csnn1`, over 100 µM.
Still for that read-out and setting: as for `CC(=O)CC(=O)OC1CC(C)CCC1C(C)C` (stereo unspecified), the figure is 44.2 µM; as for `CP1(=O)CCCCC1`, over 100 µM; as for `Cc1ccc(S(=O)(=O)OC2CSS(=O)CC2OS(=O)(=O)c2ccc(C)cc2)cc1` (stereo unspecified), 9.03 µM.
Regarding `COc1cc2c(cc1C)NC(=O)/C2=C/c1ccccn1`, the GI50 is 4.28 µM and the TGI was over 100 µM.
`O=[N+]([O-])c1cc(C(F)(F)F)cc([N+](=O)[O-])c1CCl` gave a TGI of 1.39 µM.
Same read-out and setting: under `COC(=O)/C(C)=C(/CCC1(C)OCCO1)O[Si](C)(C)C` stands over 100 µM; under `CCOC(=O)N1CCN(C=S)CC1`, over 100 µM; under `COc1cc([C@@H]2OC[C@@H]3C(c4cc(OC)c5c(c4)OCO5)OC[C@@H]32)cc(OC)c1OC` (stereo partly specified), over 100 µM.
The same measure, in the same setting: under `CCc1cc(C(=O)OC)cn1C(=N)c1ccc(Cl)cc1` stands over 100 µM; under `Cc1cc(=O)n(-c2ccccc2C)c(C)n1`, over 100 µM.
Same read-out and setting: as for `Oc1c(C(Nc2cccc3cccnc23)c2ccccc2)ccc2cccnc12` (stereo unspecified), the figure is over 100 µM; as for `COc1ccc(Br)c(N/N=C2\CCCNC2=O)c1`, over 100 µM.
Consider `COc1cc2c(c(OC)c1OC)-c1ccc(SC)c(=O)cc1C(CO)C2` (stereo unspecified), for which the GI50 is under 0.01 µM and the TGI is over 100 µM.
The molecule `Cc1ccc2nc(NC(=O)C(=O)C(C#N)c3nc4ccccc4s3)sc2c1` (stereo unspecified) had a TGI of 51.4 µM.
The same measure, in the same setting: under `CC(C)C1CC[C@@H](C)C[C@@]1(O)CC(N)=O` (stereo partly specified) stands over 100 µM.
On to `O=C([CH-]C(=O)c1ccccc1)c1ccccc1.O=C([CH-]C(=O)c1ccccc1)c1ccccc1.[La+3].[OH-].[OH3+]`, for which the GI50 was 6.24 µM and the TGI was found to be 38.6 µM.
`CN(CCCn1c2c(c3ccccc3c1=O)C(=O)c1ccccc1-2)CCCn1c2c(c3ccccc3c1=O)C(=O)c1ccccc1-2`: the TGI is 1.06 µM.
Regarding `CCC[CH2][Sn]1([CH2]CCC)[O]C(=O)c2cccnc2[O]1`, the GI50 was 2.09 µM and the TGI was 5.96 µM.
Take `COC1CC(OS(=O)(=O)c2ccc([N+](=O)[O-])cc2)C(OC(=O)c2ccccc2)C(C)O1` (stereo unspecified): the TGI was over 100 µM.
As for `CCOc1ccccc1N1C(=O)C(=O)C(c2nc3ccccc3o2)C(=O)C1=O`, the TGI was over 100 µM.
Consider `CCS(CC)(CC)CC1CCCC2=CCC(P(=O)(c3ccccc3)c3ccccc3)CC21` (stereo unspecified), for which the TGI turned out to be 25.2 µM.
On the same count and under the same terms, under `CC(=O)OCC1OC(n2cnc(C(N)=S)c2N)C(OC(C)=O)C1OC(C)=O` (stereo unspecified) stands over 100 µM; under `COc1ccc2n[se]nc2c1`, over 100 µM; under `Cn1cc(C(=O)NCCC(=N)N)cc1NC(=O)C1=[N+](C)C=C(NC(=O)c2cccc(C(=O)NC3=CC(C(=O)Nc4cc(C(=O)NCCC(=N)N)cn4C)=[N+](C)C3)c2)C1`, over 100 µM.
